Experimental findings from US7253286B2, “Nitrogen-containing aromatic derivatives” (Eisai Co., Ltd, priority 2000, dated 2007) are described below.

SMILES strings stand for the structures. pIC50: −log10 of the molar value.

The target in this assay is T1, VEGFR2 (Homo sapiens, UniProt P35968).
T1 construct: coding for the cytoplasmic domain, beginning with lysine 791 and including the termination codon; made in house; host or cells: Sf9 insect cells (baculovirus, pFastBacHis)
T1 sequence (P35968 786-1356 limits assumed): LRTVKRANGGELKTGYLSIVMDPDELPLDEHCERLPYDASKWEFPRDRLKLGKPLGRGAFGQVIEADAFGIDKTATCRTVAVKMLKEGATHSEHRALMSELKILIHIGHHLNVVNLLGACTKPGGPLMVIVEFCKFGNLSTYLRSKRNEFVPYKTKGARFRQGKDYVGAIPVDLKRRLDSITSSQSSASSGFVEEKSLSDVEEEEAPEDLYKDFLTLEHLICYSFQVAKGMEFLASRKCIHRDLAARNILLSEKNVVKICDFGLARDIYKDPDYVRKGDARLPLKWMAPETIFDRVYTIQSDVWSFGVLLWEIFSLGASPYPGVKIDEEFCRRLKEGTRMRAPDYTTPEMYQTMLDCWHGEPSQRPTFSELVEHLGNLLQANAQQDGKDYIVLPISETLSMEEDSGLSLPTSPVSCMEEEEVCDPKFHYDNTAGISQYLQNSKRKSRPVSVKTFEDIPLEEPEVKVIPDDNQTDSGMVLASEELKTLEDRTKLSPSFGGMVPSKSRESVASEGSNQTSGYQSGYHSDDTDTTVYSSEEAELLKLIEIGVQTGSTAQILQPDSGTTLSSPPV
Nature of the assay: Inhibition against VEGFR2 kinase (receptor tyrosine kinase activity, HTRF method). The format is biochemical. The conditions noted are these: His6-VEGFR2 cytoplasmic domain, biotin-poly(GT) substrate, ATP, 30° C. 10 minutes, read-out: IC50 (concentration required for 50% inhibition of VEGFR2 kinase activity). From the text:
Measurement of Inhibition Against Receptor Tyrosine Kinase Activity
This assay is used to determine inhibition of a test substance on tyrosine kinase activity. DNA coding for the cytoplasmic domain of VEGFR2 is obtained by total cDNA synthesis (Edwards M, International Biotechnology Lab 5(3), 19–25, 1987) or by cloning. Expression in an appropriate expression system can produce a polypeptide with tyrosine kinase activity. […] For VEGFR2 (Genbank Accession No. L04947), the 1.7 kb DNA fragment described by Terman et al. (Oncogene, 6(9), 1677–1683, 1991), coding for the cytoplasmic domain, beginning with lysine 791 and including the termination codon, was isolated from a human placental cDNA library (purchased from Clontech Laboratories, Inc.) and cloned in a Baculovirus expression vector (pFastBacHis, purchased from GIBCO BRL) The recombinant construct was transfected into insect cells (Spondoptea frugiperda9 (Sf9)) to prepare a recombinant Baculovirus. (Instructions for preparation and use of recombinant Baculovirus maybe found in standard texts, such as “Bac-To-Bac Baculovirus Expression System” (GIBCO BRL).) The cytoplasmic fragment starting from lysine 398 (FGFR1, Genbank Accession No. X52833), the cytoplasmic fragment starting from lysine 558 (PDGFRβ, Genbank Accession No. M21616) or the cytoplasmic fragment starting from lysine 974 (HGFR, Genbank Accession No. J02958) may be cloned and expressed by the same method for use in assays for other tyrosine kinases. EGFR was purchased from Sigma Co. (Product No. E-2645).
For expression of the VEGFR2 tyrosine kinase, Sf9 cells were infected with the VEGFR2 recombinant virus and collected after 48 hours. The collected cells were rinsed with ice-cooled phosphate buffered saline (PBS) and then resuspended using 20 ml of ice-cooled Lysis Buffer (50 mM Tris-HCl (pH 8.5), 5 mM 2-mercaptoethanol, 100 mM KCl, 1 mM phenylmethylsulfonyl fluoride, 1% (v/v) NP-40) per 1.5×10^8 cells. The suspension was centrifuged at 12,000 rpm for 30 minutes at 4° C. and the supernatant was obtained.
The supernatant was added to a Ni—NTA agarose column (3 ml, purchased from Qiagen) equilibrated with Buffer A {20 mM Tris-HCl (pH 8.5), 5 mM 2-mercaptoethanol, 500 mM KCl, 20 mM imidazole, 10% (v/v) glycerol}. The column was washed with 30 ml of Buffer A, and then with 6 ml of Buffer B {20 mM Tris-HCl (pH 8.5), 5 mM 2-mercaptoethanol, 1M KCl, 10% (v/v) glycerol}, and finally with 6 ml of Buffer A. After washing, it was eluted with 6 ml of Buffer C {20 mM Tris-HCl (pH8.5), 5mM2-mercaptoethanol, 100 mMKCl, 100 mM imidazole, 10% (v/v) glycerol}. The eluate was placed on a dialysis membrane (purchased from Spectrum Laboratories) and dialyzed with a dialysis buffer {20 mM Tris-HCl (pH 7.5), 10% (v/v) glycerol, 1 mM dithiothreitol, 0.1 mM Na3VO4, 0.1 mM EGTA}. After dialysis, it was supplied for SDS-electrophoresis, and the recombinant protein (His6-VEGFR2, cytoplasmic domain of VEGFR2 fused with 6 histidine residues at the N-terminus) detected at a molecular weight of approximately 100 kDa with Coumassie Brilliant Blue staining was assayed using BSA (bovine serum albumin, purchased from Sigma Co.) as the standard substance, and stored at −80° C. until use. Using the same method for the cytoplasmic domains of FGFR1, PDGFRβ and HGFR yielded respective recombinant proteins fused with 6 histidine residues at the N-termini (His6-FGFR1, His6-PDGFRβ or His6-HGFR).
The tyrosine kinase reaction was conducted as follows. […]
With `COCCOc1cc2nccc(Oc3ccc(NC(=O)Nc4cccc(O)c4)cc3)c2cc1C#N` [Example 15, N-(4-(6-Cyano-7-(2-methoxyethoxy)-4-quinolyl)oxyphenyl)-N′-(3-hydroxyphenyl)urea], the pIC50 is 8.06.
As for `COCCOc1cc2nccc(Oc3ccc(NC(=O)Nc4cccc(S(C)(=O)=O)c4)cc3)c2cc1C#N` [Example 21, N-(4-(6-Cyano-7-(2-methoxyethoxy)-4-quinolyl)oxyphenyl)-N′-(3-(methylsulfonyl)phenyl)urea], the pIC50 is 8.37.
Regarding `CCN(CC)CCCOc1cc2nccc(Oc3ccc(NC(=O)Nc4ccc(F)cc4)cc3)c2cc1C#N` [Example 30, N-(4-(6-Cyano-7-(3-(diethylamino)propoxy)-4-quinolyloxy)phenyl)-N′-(4-fluorophenyl)urea], the pIC50 is 7.66.
`N#Cc1cc2c(Oc3ccc(NC(=O)Nc4ccc(F)cc4)cc3)ccnc2cc1OCCCN1CCOCC1` [Example 31]: the pIC50 was 7.77.
In the case of `COCCOc1cc2nccc(Oc3ccc(NC(=O)Nc4cccc(SC)c4)c(F)c3)c2cc1C#N` [Example 33, N-(4-(6-Cyano-7-(2-methoxyethoxy)-4-quinolyl)oxy-2-fluorophenyl)-N′-(3-(methylsulfanyl)phenyl)urea], the pIC50 was 8.16.
`COCCOc1cc2nccc(Oc3ccc(NC(=O)Nc4cccc(S(C)(=O)=O)c4)c(F)c3)c2cc1C#N` [Example 34, N-(4-(6-Cyano-7-(2-methoxyethoxy)-4-quinolyl)oxy-2-fluorophenyl)-N′-(3-(methylsulfonyl)phenyl)urea]: the pIC50 was 8.47.
`COc1cc2nccc(Oc3ccc(NC(=O)Nc4ccc(F)cc4F)cc3)c2cc1C#N` [Example 36, N-(4-(6-Cyano-7-methoxy-4-quinolyl)oxyphenyl)-N′-(2,4-difluorophenyl)urea]: the pIC50 is 7.85.
For `COc1cc2nccc(Oc3ccc(NC(=O)Nc4ccccc4)cc3)c2cc1C#N` [Example 37, N-[4-(6-cyano-7-methoxyquinolin-4-yloxy)phenyl]-N′-phenylurea], the pIC50 was 7.66.
The value for `N#Cc1cc2c(Oc3ccc(NC(=O)Nc4ccc(F)cc4F)c(F)c3)ccnc2cc1OCCN1CCOCC1` [Example 54, N-(4-(6-Cyano-7-(2-(4-morpholino)ethoxy)-4-quinolyl)oxy-2-fluorophenyl)-N′-(2,4-difluorophenyl)urea] was 7.82; that for `COCCOc1cc2nccc(Oc3ccc(NC(=O)Nc4ccccc4)c(F)c3)c2cc1C#N` [Example 99, N-(4-(6-Cyano-7-(2-methoxyethoxy)-4-quinolyl)oxy-2-fluorophenyl)-N′-phenylurea] was 8.07; that for `CS(=O)(=O)NCCCOc1cc2nccc(Oc3ccc(NC(=O)Nc4ccc(F)cc4)c(F)c3)c2cc1C#N` [Example 111, N-(3-(6-Cyano-4-(3-fluoro-4-((4-fluoroanilino)carbonyl)aminophenoxy)-7-quinolyl)oxypropyl)methanesulfonamide] was 7.68.
Consider `O=C(Nc1ccc(Oc2ncnc3[nH]c(-c4ccccc4)cc23)cc1)NC1CC1` [Example 173, 1-Cyclopropyl-3-[4-(6-phenyl-7H-pyrrolo[2,3-d]pyrimidin-4-yloxy)phenyl]urea], for which the pIC50 is 6.45.
In the case of `CCNC(=O)n1ccc2cc(Oc3ncnc4[nH]c(-c5ccc(O)cc5)cc34)ccc21` [Example 178, 5-[6-(4-Hydroxyphenyl)-7H-pyrrolo[2,3-d]pyrimidin-4-yloxy]indole-1-carboxylic ethylamide], the pIC50 is 7.92.
With `O=C1CCc2c(Oc3ccc(NC(=O)Nc4ccc(F)cc4)cc3)ccnc2N1` [Example 182, N-(4-Fluorophenyl)-N′-{4-[(7-oxo-5,6,7,8-tetrahydro[1,8]naphthyridin-4-yl)oxy]phenyl}urea], the pIC50 was 7.15.
On to `O=C(Nc1ccc(F)cc1)Nc1ccc(Oc2ccnc3[nH]c(=O)ccc23)cc1` [Example 183, N-(4-Fluorophenyl)-N′-{4-[(7-oxo-7,8-dihydro[1,8]naphthyridin-4-yl)oxy]phenyl}urea], for which the pIC50 is 7.54.
`CCOC(=O)/C=C/c1c(Oc2ccc(NC(=O)Nc3ccc(F)cc3)cc2)ccnc1NC(=O)C1CC1` [Example 184, Ethyl(E)-3-[2-[(cyclopropylcarbonyl)amino]-4-(4-{[(4-fluoroanilino)carbonyl]amino}phenoxy)-3-pyridyl]-2-propenoate]: the pIC50 is 7.23.
The value for `O=C(CCCN1CCC(O)CC1)Nc1cc(Oc2ccc3c(ccn3C(=O)NC3CC3)c2)ccn1` [Example 187, N1-Cyclopropyl-5-[(2-{[4-(4-hydroxypiperidino)butanoyl]amino}-4-pyridyl)oxy]-1H-1-indolecarboxamide] was 7.85; that for `O=C(Nc1ccc(Oc2ccnc(NC(=O)C3CC3)c2)cc1Cl)NC1CC1` [Example 208] was 8.04.
For the compound `COCCOc1cc2nccc(Sc3ccc(NC(=O)Nc4nccs4)s3)c2cc1C#N` [Example 252, 1-{5-[6-Cyano-7-(2-methoxyethoxy)-quinolin-4-ylsulfanyl]-thiophen-2-yl}-3-(thiazol-2-yl)urea], the pIC50 was 7.51.
As for `COCCOc1cc2nccc(Sc3ccc(NC(=O)Nc4ccc(C)cc4)s3)c2cc1C#N` [Example 259, 1-{5-[6-Cyano-7-(2-methoxyethoxy)quinolin-4-ylsulfanyl]thiophen-2-yl}-3-(para-tolyl)urea], the pIC50 was 7.80.
Consider `COCCOc1cc2nccc(Sc3ccc(NC(=O)Nc4cccc(C#N)c4)s3)c2cc1C#N` [Example 260, 1-{5-[6-Cyano-7-(2-methoxyethoxy)quinolin-4-ylsulfanyl]-thiophen-2-yl}-3-(3-cyanophenyl)-urea], for which the pIC50 is 7.96.
The value for `COCCOc1cc2nccc(Oc3ccc(NC(=O)NC4CC4)c(Cl)c3)c2cc1C#N` [Example 262] was 8.02.
Take `COc1cc2nccc(Oc3ccc(N(C)C(=O)NC4CC4)cc3)c2cc1C(N)=O` [Example 350, 4-(4-(Cyclopropylaminocarbonyl)-4-methylaminophenoxy)-7-methoxy-6-quinolinecarboxamide]: the pIC50 was 7.37.
The value for `COc1cc2nccc(Oc3ccc(NC(=O)NCCCSC)c(F)c3)c2cc1C(N)=O` [Example 353, 4-(3-Fluoro-4-((3-methylthiopropylamino)carbonyl)aminophenoxy)-7-methoxy-6-quinolinecarboxamide] was 8.66.
For `COCCOc1cc2nccc(Oc3ccc(NC(=O)NCCF)c(F)c3)c2cc1C(N)=O` [Example 364, 4-(4-(3-Fluoro(2-fluoroethylamino)carbonyl)aminophenoxy)-7-(2-methoxyethoxy)-6-quinolinecarboxamide] the value was 8.09; for `COCCOc1cc2nccc(Oc3ccc(NC(=O)NCCCF)c(F)c3)c2cc1C(N)=O` [Example 365], 8.27.
`NC(=O)c1cc2c(Oc3ccc(NC(=O)NC4CC4)c(F)c3)ccnc2cc1OCCN1CCOCC1` [Example 375, 4-(4-(Cyclopropylaminocarbonyl)amino-3-fluorophenoxy)-7-(2-(4-morpholino)ethoxy)-6-quinolinecarboxamide]: the pIC50 is 7.80.
Regarding `NC(=O)c1cc2c(Oc3ccc(NC(=O)NC4CC4)c(Cl)c3)ccnc2cc1OCCCO` [Example 387, 4-(3-Chloro-4-(cyclopropylaminocarbonyl)aminophenoxy)-7-(3-hydroxypropoxy)-6-quinolinecarboxamide], the pIC50 was 8.39.
